Test results taken from patent US20250235543A1, “MODIFIED PROTEINS AND PROTEIN DEGRADERS” (Cullgen (Shanghai), Inc., priority 2021, published 2025).

What was measured:
[1] = test system: Cal-62; test: Cell viability assay, Cal-62; format: cell-based; conditions: Homo sapiens, 72 h; Cal-62, TC, 3 days; read-out: Cellular Anti-proliferation activity (IC50)
Description: (§1) Cells were treated with CDK4/6 inhibitors palbociclib, ribociclib, or abemaciclib, or heterobifunctional compounds CPD-002 or CPD-031 following a 9-point serial dilution for 3 days.
(§2) Cells were seeded at a density of 2,000-5,000 cells per well in 96-well assay plates and treated with test compounds following a 10-point serial dilution for 3-6 days. Cell viability was determined using the CellTiter-Lumi assay kit according to the manufacturer's instructions. The dose-response curves were determined and IC50 values were calculated using the GraphPad Prism software following a nonlinear regression (least squares fit) method. Data presented was mean±standard deviation (SD) unless otherwise indicated.

[2] = test system: NCI-H522; test: Cell viability assay, NCI-H522; format: cell-based; conditions: Homo sapiens, 72 h; NCI-H522, NSCLC, 3 days; read-out: Cellular Anti-proliferation activity (IC50)
Description: as §1, §2

[3] = test system: CDK4, CDK6; test: Immunoblot of CDK4 and CDK6 protein levels in Calu-1 cells; format: cell-based; conditions: 500 nM CPD-002
Description: (§3) Specific exemplary heterobifunctional compounds were characterized in Calu-1, BT-549 and other cells. Cells that express cyclin D1-3 and CDK4/6 proteins were treated with heterobifunctional compounds disclosed herein at indicated concentrations for 16 hours. Cells were collected, lysed and subject to immunoblotting using an antibody specific to cyclin D1, cyclin D2, cyclin D3, CDK4, CDK6 or phosphorylated R^b proteins. Tubulin or GAPDH was used as the loading control. DMSO treatment was used as the negative control.
(§4) In a time-course study, Calu-1 cells were treated with 500 nM CPD-002, or 100 nM CPD-031 for indicated period of time prior to immunoblotting (FIG. 4A-4B).
To verify that heterobifunctional compound-mediated degradation is dependent on the binding to CDK4-cyclin D complex, we designed three negative control compounds, CPD-042, CPD-049 and CPD-380, which are derived from CPD-002 CPD-031 and CPD-343, respectively. These three control compounds bear the same DDB1 ligand and linker as their corresponding active heterobifunctional compounds but with modified warheads to impair the binding of the control compounds to CDK4. […] Two cereblon (CRBN)-recruiting reference heterobifunctional compounds, CP-10 (Su, J Med Chem, 2019; CAS No.: 2366268-80-4) and BSJ-03-123 (Brand, Cell Chem Biol, 2019; CAS No.: 2361493-16-3) were analyzed in Calu-1 cells.

[4] = test system: Hs578T; test: Cell viability assay, Hs578T; format: cell-based; conditions: Homo sapiens, Hs-578T, 72 h, TNBC, 3 days, read-out: Cellular Anti-proliferation activity (IC50)
Description: as §1, §2

[5] = test system: cyclin D1, cyclin D2, cyclin D3; test: Immunoblot of cyclin D protein levels in Calu-1 (and BT-549) cells; format: cell-based; conditions: for cyclin D downregulation effect after pre-treatment with MG-132, MLN4924 or TAK-243: proteasome, cullin E3 ligase or UAE inhibitor pre-treatment; for DC50 / reduction of cyclin D1, cyclin D2, and cyclin D3 protein levels: immunoblot, dose range; for DC50: 16 hours treatment; for reduction of cyclin D1, cyclin D2, and cyclin D3 protein levels: Calu-1 / BT-549 cells, 16 hours
Description: as §3, §4
The heterobifunctional compound-mediated degradation was dependent on the ubiquitin-proteasome system and cullin E3 ligase. […] In addition, DDB1 E3 ligase was critical for the degrader-induced cyclin D downregulation. Depletion of DDB1 using CRISPR-Cas9 technology attenuated the cyclin D degradation induced by CPD-031 (FIG. 5C).
To verify that heterobifunctional compound-mediated degradation is dependent on the binding to CDK4-cyclin D complex, we designed three negative control compounds, CPD-042, CPD-049 and CPD-380, which are derived from CPD-002 CPD-031 and CPD-343, respectively. These three control compounds bear the same DDB1 ligand and linker as their corresponding active heterobifunctional compounds but with modified warheads to impair the binding of the control compounds to CDK4. […] However, the binding to CDK4 is not sufficient for cyclin D degradation. Two cereblon (CRBN)-recruiting reference heterobifunctional compounds, CP-10 (Su, J Med Chem, 2019; CAS No.: 2366268-80-4) and BSJ-03-123 (Brand, Cell Chem Biol, 2019; CAS No.: 2361493-16-3) were analyzed in Calu-1 cells.

[6] = test system: KURAMOCHI; test: Cell viability assay, KURAMOCHI; format: cell-based; conditions: 72 h, OC, 3 days, read-out: Cellular Anti-proliferation activity (IC50)
Description: as §1, §2

[7] = test system: BT-549; test: Cell viability assay, BT-549; format: cell-based; conditions: Homo sapiens, 72 h; BT-549, TNBC, 3 days; read-out: Cellular Anti-proliferation activity (IC50)
Description: as §1, §2

[8] = target: T1, CDK4 (Homo sapiens, UniProt P11802); test: CDK4 percentage degradation in Calu-1 cells (immunoblotting); format: cell-based; conditions: Calu-1 cells, 200 nM, 16 hours; read-out: CDK4 Degradation (200 nM)
T1 construct: endogenous in cells; host or cells: Calu-1
T1 sequence (P11802 2-303 limits assumed): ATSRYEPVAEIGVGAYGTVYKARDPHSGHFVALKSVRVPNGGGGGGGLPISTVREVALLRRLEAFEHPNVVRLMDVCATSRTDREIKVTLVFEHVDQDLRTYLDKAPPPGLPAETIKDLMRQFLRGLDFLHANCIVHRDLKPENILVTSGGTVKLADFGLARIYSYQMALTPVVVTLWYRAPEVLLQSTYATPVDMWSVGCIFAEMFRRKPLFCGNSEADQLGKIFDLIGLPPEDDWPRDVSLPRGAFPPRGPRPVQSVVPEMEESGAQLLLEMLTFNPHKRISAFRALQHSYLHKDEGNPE
T1 sequence (P24385 whole entry partner): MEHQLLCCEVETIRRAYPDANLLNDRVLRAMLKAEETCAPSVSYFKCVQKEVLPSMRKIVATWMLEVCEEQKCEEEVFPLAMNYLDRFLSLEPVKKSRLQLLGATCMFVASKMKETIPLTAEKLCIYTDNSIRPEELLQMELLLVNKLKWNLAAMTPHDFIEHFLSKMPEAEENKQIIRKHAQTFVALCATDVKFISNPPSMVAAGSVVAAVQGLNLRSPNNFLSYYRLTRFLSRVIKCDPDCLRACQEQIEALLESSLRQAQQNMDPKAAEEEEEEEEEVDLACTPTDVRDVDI
T1 sequence (Q16531 2-1140 limits assumed, further chain): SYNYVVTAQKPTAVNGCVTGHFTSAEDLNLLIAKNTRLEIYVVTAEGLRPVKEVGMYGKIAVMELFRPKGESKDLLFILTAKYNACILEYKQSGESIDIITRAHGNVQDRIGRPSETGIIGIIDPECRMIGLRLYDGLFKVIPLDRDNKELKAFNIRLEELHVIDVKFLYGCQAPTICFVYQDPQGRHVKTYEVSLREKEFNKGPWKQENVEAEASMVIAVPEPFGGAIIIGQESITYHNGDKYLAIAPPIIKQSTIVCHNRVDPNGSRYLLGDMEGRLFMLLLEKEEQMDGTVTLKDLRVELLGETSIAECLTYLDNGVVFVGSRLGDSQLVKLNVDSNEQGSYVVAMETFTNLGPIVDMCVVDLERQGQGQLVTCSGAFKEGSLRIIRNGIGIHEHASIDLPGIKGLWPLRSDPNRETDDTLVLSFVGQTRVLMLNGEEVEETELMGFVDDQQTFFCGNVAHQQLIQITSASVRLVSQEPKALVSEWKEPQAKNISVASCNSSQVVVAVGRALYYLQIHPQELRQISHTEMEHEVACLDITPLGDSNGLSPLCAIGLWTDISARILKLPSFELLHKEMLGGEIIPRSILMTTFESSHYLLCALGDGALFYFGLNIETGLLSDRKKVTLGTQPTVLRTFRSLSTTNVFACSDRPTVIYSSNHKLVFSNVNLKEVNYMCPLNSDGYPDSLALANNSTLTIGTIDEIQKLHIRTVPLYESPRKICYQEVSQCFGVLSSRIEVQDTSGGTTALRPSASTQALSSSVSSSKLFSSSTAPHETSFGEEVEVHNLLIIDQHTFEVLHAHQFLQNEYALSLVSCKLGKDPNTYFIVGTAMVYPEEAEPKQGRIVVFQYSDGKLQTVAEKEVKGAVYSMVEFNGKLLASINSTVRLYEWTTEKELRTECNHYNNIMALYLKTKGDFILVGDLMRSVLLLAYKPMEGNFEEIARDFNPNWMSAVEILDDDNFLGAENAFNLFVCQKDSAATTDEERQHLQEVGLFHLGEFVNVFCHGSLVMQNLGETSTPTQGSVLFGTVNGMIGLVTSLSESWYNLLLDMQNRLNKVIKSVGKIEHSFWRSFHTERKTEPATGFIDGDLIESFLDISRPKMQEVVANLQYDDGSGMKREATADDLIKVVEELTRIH
Method in brief: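 Cultured cells were rinsed once in cold PBS and lysed in cold RIPA buffer containing protease and phosphatase inhibitors, with gentle agitation at 4° C. for 30 min. Lysates were centrifuged at 13,000 rpm for 10 min at 4° C., and protein was quantified by BCA. Samples were then separated by SDS-PAGE, detected with ECL, and the CDK4 bands quantified in Image Lab.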

[9] = test system: cyclin D1, cyclin D2, cyclin D3, CDK4 and CDK6; test: Immunoblotting of cyclin D and CDK4/6 protein levels in BT-549 cells; format: cell-based; conditions: indicated concentrations, 16 hours
Description: Calu-1 (FIG. 2A) or BT-549 (FIG. 2B) cells were treated with CPD-002, CPD-004, or palbociclib at indicated concentrations for 16 hours.
Cultured cells were washed with cold PBS once and lysed in cold RIPA buffer supplemented with protease inhibitors and phosphatase inhibitors (Beyotime Biotechnology). The solutions were then incubated at 4° C. for 30 min with gentle agitation to fully lysed cells. Cell lysates were centrifuged at 13,000 rpm for 10 min at 4° C. and pellets were discarded. Total protein concentrations in the lysates were determined following BCA assays (Beyotime Biotechnology). Cell lysates were mixed with Laemmli loading buffer and heated at 99° C. for 5 min. Proteins were resolved on SDS-PAGE and visualized using Western ECL Substrate kits on a ChemiDoc MP Imaging system (Bio-Rad). Protein bands were quantitated using the Image Lab software provided by Bio-Rad.

[10] = test system: MDA-MB-468; test: Cell viability assay, MDA-MB-468; format: cell-based; conditions: Homo sapiens, 72 h; MDA-MB-468, TNBC, 3 days; read-out: Cellular Anti-proliferation activity (IC50)
Description: as §1, §2

[11] = target: T2, DDB1 (Homo sapiens, UniProt Q16531, D705G/DEL396-460/DEL463-701/I704S/T703N); test: Surface plasmon resonance (SPR) binding of heterobifunctional compounds to DDB1; conditions: purified DDB1ΔBPB immobilized on CM5 chip, multi-cycle kinetic format, steady state model, read-out: binding affinities (Kd) to DDB1
T2 construct: His6 (N, cleaved yes); TEV protease cleavage site (N, cleaved yes); made in house; host or cells: SF9 insect cells, Bac-to-Bac baculovirus, pFastBacHTB vector
T2 sequence (Q16531 other isoform, or with tags, fused parts or gaps DEL396-460/DEL463-701/T703N/I704S/D705G): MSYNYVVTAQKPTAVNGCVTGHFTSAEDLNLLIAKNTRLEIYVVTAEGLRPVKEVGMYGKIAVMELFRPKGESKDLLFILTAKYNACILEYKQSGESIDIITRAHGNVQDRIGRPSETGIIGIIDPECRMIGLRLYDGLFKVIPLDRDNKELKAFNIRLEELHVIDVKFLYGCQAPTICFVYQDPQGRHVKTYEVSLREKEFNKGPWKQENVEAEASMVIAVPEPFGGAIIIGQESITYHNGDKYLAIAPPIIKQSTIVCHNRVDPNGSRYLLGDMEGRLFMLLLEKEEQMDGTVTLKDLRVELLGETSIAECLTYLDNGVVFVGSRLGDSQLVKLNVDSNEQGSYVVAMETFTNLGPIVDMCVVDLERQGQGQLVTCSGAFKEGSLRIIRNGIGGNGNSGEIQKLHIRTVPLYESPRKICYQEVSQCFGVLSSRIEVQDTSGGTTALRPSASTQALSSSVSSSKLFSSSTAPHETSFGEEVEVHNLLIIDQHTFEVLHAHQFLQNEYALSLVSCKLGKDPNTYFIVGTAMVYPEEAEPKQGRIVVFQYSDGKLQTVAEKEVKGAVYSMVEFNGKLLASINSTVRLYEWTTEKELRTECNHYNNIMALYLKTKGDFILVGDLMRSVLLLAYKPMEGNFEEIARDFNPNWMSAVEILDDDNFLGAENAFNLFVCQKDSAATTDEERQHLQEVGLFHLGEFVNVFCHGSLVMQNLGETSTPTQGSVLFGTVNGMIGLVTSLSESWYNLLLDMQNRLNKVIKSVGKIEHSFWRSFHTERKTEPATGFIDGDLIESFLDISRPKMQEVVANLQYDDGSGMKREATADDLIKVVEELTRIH
Description: To determine whether the addition of linkers and target binders to the DDB1 ligands affected the binding to DDB1 E3 ligase, the binding affinities of heterobifunctional compounds to DDB1 was evaluated using a surface plasmon resonance (SPR) assay. Purified DDB1ΔBPB proteins were immobilized on a CM5 sensor chip and a dose range of compound solutions were injected in multi-cycle kinetic format. Data was fit to steady state model and gave equivalent dissociation constants (Kd).

[12] = time-course, Calu-1 cells, 500 nM CPD-002

SMILES | IC50 [1] [nM] | IC50 [2] [nM] | degradation of CDK4 and CDK6 relative to cyclin D, time-course [3] | IC50 [4] [nM] | cyclin D downregulation effect after pre-treatment with MG-132, MLN4924 or TAK-243 ([5]; Calu-1 cells) | DC50 [5] [nM] | reduction of cyclin D1, cyclin D2, and cyclin D3 protein levels [5] | time to complete degradation of cyclin D proteins [5, 12] [h] | time to significant degradation of cyclin D proteins [5, 12] [h] | IC50 [6] [nM] | IC50 [7] [nM] | inhibition at 0.2 µM [8] [%] | cyclin D1, cyclin D2, cyclin D3, CDK4 and CDK6 protein levels [9] | IC50 [10] [nM] | cyclin D3 versus cyclin D1 and D2 degradation, time-course ([5]; Calu-1 cells, 100 nM CPD-031) | Kd [11] [nM]
CC(=O)c1c(C)c2cnc(Nc3ccc(N4CCN(CC(=O)NCCOCCOCCOCCOCCOCCNc5ccc(C(=O)Nc6ncc(C)s6)c(C)c5)CC4)cn3)nc2n(C2CCCC2)c1=O [CPD-002, 4-((1-(4-(6-((6-Acetyl-8-cyclopentyl-5-methyl-7-oxo-7,8-dihydropyrido[2,3-d]pyrimidin-2-yl)amino)pyridin-3-yl)piperazin-1-yl)-2-oxo-6,9,12,15,18-pentaoxa-3-azaicosan-20-yl)amino)-2-methyl-N-(5-methylthiazol-2-yl)benzamide] | 50 | 638 | occurred much slower | 215 | totally diminished | < 50 | particularly effective | ≤ 2 | ≤ 0.5 | 920 | 690 | 50 to 80 | reduced cyclin D1, cyclin D2, cyclin D3, CDK4 and CDK6 protein levels in a concentration-dependent manner | 1480 | – | –
CC(=O)c1c(C)c2cnc(Nc3ccc(N4CCN(CC(=O)NCCOCCOCCOCCOCCOCCNc5ccc(C(=O)Nc6nc(C)c(C)s6)c(C)c5)CC4)cn3)nc2n(C2CCCC2)c1=O [CPD-031, 4-((1-(4-(6-((6-Acetyl-8-cyclopentyl-5-methyl-7-oxo-7,8-dihydropyrido[2,3-d]pyrimidin-2-yl)amino)pyridin-3-yl)piperazin-1-yl)-2-oxo-6,9,12,15,18-pentaoxa-3-azaicosan-20-yl)amino)-N-(4,5-dimethylthiazol-2-yl)-2-methylbenzamide] | 5 | 155 | – | 38 | totally diminished | < 20 | particularly effective | – | – | 190 | 110 | > 80 | – | – | slower cyclin D3 degradation compared to cyclin D1 and D2 degradation | 5700
